Reference: US12404289B2 (Gilead Sciences, Inc., priority 2020, dated 2025)
Where two headings read alike, the source gives them in different places.

Legend:
Assay type in all cases: cell-based
[1] = test system: Respiratory syncytial virus (RSV) strain A2; assay: Hep-2 RSV2 384-well assay (EC50-HEP2-384); settings: HEp-2 cells, RSV A2, MOI=4, 4 days
[2] = test system: Recombinant respiratory syncytial virus expressing the firefly luciferase protein (RSV-Fluc); assay: microbe, parasite or virus in culture; settings: Table 4
SARS-CoV-2 = SARS-CoV-2 antiviral assay (A549-hACE2, Nano luciferase); settings: A549-hACE2 cells, SARS-CoV2-Nano, MOI 0.025, 48 h, Table 4, read-out: EC50 SARS CoV2
[3] = test system: Respiratory syncytial virus (RSV) strain A2; assay: RSV antiviral assay (HEp-2, 96 well); settings: Table 3
[4] = read-out: EC50 RSVFluc NHBE 96, NHBE cells, RSV-Fluc, MOI of 0.1, three days, 96 well
[5] = human respiratory syncytial virus, HEp-2, 96 h, Table 3
[6] = human respiratory syncytial virus, NHBE, 72 h, read-out: EC50 RSVFluc NHBE 96, NHBE cells, RSV-Fluc, MOI of 0.1, three days, 96 well
[7] = Severe acute respiratory syndrome coronavirus 2, 48 h
[8] = human respiratory syncytial virus, HEp-2, 96 h, read-out: EC50 RSV HEP2 96, HEp-2 cells, RSV A2, MOI=4, 4 days, 96 well

CC(C)C(=O)O[C@H]1[C@@H](OC(=O)C(C)C)[C@](C#N)(c2ccc3c(N)ncnn23)O[C@@H]1COP(=O)(N[C@@H](C)C(=O)OC1CCC1)Oc1ccccc1 (single isomer, unassigned) [Example 21a]
EC50 ([1]; Table 1): 92 nM
EC50 [2, 4]: 37.4 nM
EC50 (SARS-CoV-2): 125 nM

COC(C)(C)COC(=O)[C@H](C)NP(=O)(OC[C@H]1O[C@@](C#N)(c2ccc3c(N)ncnn23)[C@H](OC(=O)C(C)C)[C@@H]1OC(=O)C(C)C)Oc1cccc2ccccc12 (stereo partly drawn) [Example 133, (2R,3R,4R,5R)-2-(4-aminopyrrolo[2,1-f][1,2,4]triazin-7-yl)-2-cyano-5-((((((S)-1-(2-methoxy-2-methylpropoxy)-1-oxopropan-2-yl)amino)(naphthalen-1-yloxy)phosphoryl)oxy)methyl)tetrahydrofuran-3,4-diyl bis(2-methylpropanoate)]
EC50 [1, 5]: 33.6 nM
EC50 [2, 6]: 13.8 nM
EC50 (SARS-CoV-2; [7]): 36.9 nM

CC(C)C(=O)O[C@H]1[C@@H](OC(=O)C(C)C)[C@](C#N)(c2ccc3c(N)ncnn23)O[C@@H]1COP(=O)(N[C@@H](C)C(=O)OCC1CC1)Oc1ccc(C(C)(C)C)cc1 (stereo partly drawn) [Example 104a, (2R,3R,4R,5R)-2-(4-aminopyrrolo[2,1-f][1,2,4]triazin-7-yl)-5-((((4-(tert-butyl)phenoxy)(((S)-1-(cyclopropylmethoxy)-1-oxopropan-2-yl)amino)phosphoryl)oxy)methyl)-2-cyanotetrahydrofuran-3,4-diyl bis(2-methylpropanoate)]
EC50 [1, 5]: 39 nM
EC50 [2, 6]: 10.8 nM
EC50 (SARS-CoV-2; [7]): 234 nM

CCC(=O)O[C@H]1[C@@H](OC(=O)CC)[C@](C#N)(c2ccc3c(N)ncnn23)O[C@@H]1COP(=O)(N[C@@H](C)C(=O)OC1CCC1)Oc1ccc(C(C)(C)C)cc1 (single isomer, unassigned) [Example 32b]
EC50 ([1]; Table 3): 30 nM
EC50 [2, 4]: 10.7 nM
EC50 (SARS-CoV-2): 59.7 nM

CCOC(=O)[C@H](C)NP(=O)(OC[C@H]1O[C@@](C#N)(c2ccc3c(N)ncnn23)[C@H](OC(=O)C(C)C)[C@@H]1OC(=O)C(C)C)Oc1ccc(C(C)(C)C)cc1 (single isomer, unassigned) [Example 18b]
EC50 ([1]; Table 1): 75 nM
EC50 [2, 4]: 15.1 nM
EC50 (SARS-CoV-2): 332 nM

CC(=O)O[C@H]1[C@@H](OC(C)=O)[C@](C#N)(c2ccc3c(N)ncnn23)O[C@@H]1COP(=O)(N[C@@H](C)C(=O)OC1CCC1)Oc1ccc(C(C)(C)C)cc1 (single isomer, unassigned) [Example 33a]
EC50 [1, 5]: 22.7 nM
EC50 [2, 6]: 9.06 nM
EC50 (SARS-CoV-2; [7]): 134 nM

CC(C)C(=O)O[C@H]1[C@@H](OC(=O)C(C)C)[C@](C#N)(c2ccc3c(N)ncnn23)O[C@@H]1COP(=O)(N[C@@H](C)C(=O)OC1CCC1)Oc1ccccc1 (single isomer, unassigned) [Example 21b]
EC50 ([1]; Table 1): 34.7 nM
EC50 [2, 4]: 33.1 nM
EC50 (SARS-CoV-2): 191 nM

CCOC(=O)[C@H](C)NP(=O)(OC[C@H]1O[C@@](C#N)(c2ccc3c(N)ncnn23)[C@H](OC(C)=O)[C@@H]1OC(C)=O)Oc1ccc(C23CC(C2)C3)cc1 (single isomer, unassigned) [Example 42a]
EC50 [1, 5]: 68.3 nM
EC50 [2, 6]: 9.56 nM
EC50 (SARS-CoV-2): 121 nM

C[C@H](NP(=O)(OC[C@H]1O[C@@](C#N)(c2ccc3c(N)ncnn23)[C@H](O)[C@@H]1O)Oc1ccc(C(C)(C)C)cc1)C(=O)OC1CCC1 (single isomer, unassigned) [Example 31a]
EC50 [1, 5]: 29.2 nM
EC50 [2, 6]: 6.33 nM
EC50 (SARS-CoV-2; [7]): 92.3 nM

CCOC(=O)[C@H](C)NP(=O)(OC[C@H]1O[C@@](C#N)(c2ccc3c(N)ncnn23)[C@H](OC(=O)C(C)C)[C@@H]1OC(=O)C(C)C)Oc1cccc2ccccc12 (stereo partly drawn) [Example 67, [(2R,3R,4R,5R)-5-(4-aminopyrrolo[2,1-f][1,2,4]triazin-7-yl)-5-cyano-2-[[[[(1S)-2-ethoxy-1-methyl-2-oxo-ethyl]amino]-(1-naphthyloxy)phosphoryl]oxymethyl]-4-(2-methylpropanoyloxy)tetrahydrofuran-3-yl] 2-methylpropanoate]
EC50 [2, 6]: 8.72 nM
EC50 (SARS-CoV-2; [7]): 27.2 nM
EC50 [3, 8]: 18 nM

CCC(=O)O[C@H]1[C@@H](OC(=O)CC)[C@](C#N)(c2ccc3c(N)ncnn23)O[C@@H]1COP(=O)(N[C@@H](C)C(=O)OC1CCC1)Oc1ccc(C(C)(C)C)cc1 (single isomer, unassigned) [Example 32a]
EC50 [1, 5]: 25.4 nM
EC50 [2, 6]: 16.7 nM
EC50 (SARS-CoV-2): 157 nM

CC(=O)O[C@H]1[C@@H](OC(C)=O)[C@](C#N)(c2ccc3c(N)ncnn23)O[C@@H]1COP(=O)(N[C@@H](C)C(=O)OC1CCC1)Oc1ccc(C(C)(C)C)cc1 (single isomer, unassigned) [Example 33b]
EC50 ([1]; Table 3): 27.2 nM
EC50 [2, 4]: 12.2 nM
EC50 (SARS-CoV-2): 231 nM

CCC(C)(C)CCOC(=O)[C@H](C)NP(=O)(OC[C@H]1O[C@@](C#N)(c2ccc3c(N)ncnn23)[C@H](OC(C)=O)[C@@H]1OC(C)=O)Oc1ccccc1 (stereo partly drawn) [Example 106b, (2R,3R,4R,5R)-2-(4-aminopyrrolo[2,1-f][1,2,4]triazin-7-yl)-2-cyano-5-((((((S)-1-((3,3-dimethylpentyl)oxy)-1-oxopropan-2-yl)amino)(phenoxy)phosphoryl)oxy)methyl)tetrahydrofuran-3,4-diyl Diacetate]
EC50 ([1]; Table 3): 34.2 nM
EC50 [2, 6]: 12.2 nM
EC50 (SARS-CoV-2): 97.8 nM

CCOC(=O)[C@H](C)NP(=O)(OC[C@H]1O[C@@](C#N)(c2ccc3c(N)ncnn23)[C@H](OC(=O)C(C)C)[C@@H]1OC(=O)C(C)C)Oc1ccc(C(C)(C)C)cc1 (single isomer, unassigned) [Example 18a]
EC50 ([1]; human respiratory syncytial virus, HEp-2, 96 h, Table 1): 65.4 nM
EC50 [2, 6]: 22.2 nM
EC50 (SARS-CoV-2; [7]): 312 nM

CC(C)C(=O)O[C@H]1[C@@H](OC(=O)C(C)C)[C@](C#N)(c2ccc3c(N)ncnn23)O[C@@H]1COP(=O)(N[C@@H](C)C(=O)OCC1CCC1)Oc1ccccc1 (stereo partly drawn) [Example 117, (2R,3R,4R,5R)-2-(4-aminopyrrolo[2,1-f][1,2,4]triazin-7-yl)-2-cyano-5-((((((S)-1-(cyclobutylmethoxy)-1-oxopropan-2-yl)amino)(phenoxy)phosphoryl)oxy)methyl)tetrahydrofuran-3,4-diyl bis(2-methylpropanoate)]
EC50 [2, 6]: 22.1 nM
EC50 (SARS-CoV-2; [7]): 192 nM
EC50 [3, 8]: 11 nM

C[C@H](NP(=O)(OC[C@H]1O[C@@](C#N)(c2ccc3c(N)ncnn23)[C@H](O)[C@@H]1O)Oc1ccc(C(C)(C)C)cc1)C(=O)OC1CC(C)(C)C1 (stereo partly drawn) [Example 93, 3,3-dimethylcyclobutyl ((((2R,3S,4R,5R)-5-(4-aminopyrrolo[2,1-f][1,2,4]triazin-7-yl)-5-cyano-3,4-dihydroxytetrahydrofuran-2-yl)methoxy)(4-(tert-butyl)phenoxy)phosphoryl)-L-alaninate]
EC50 [1, 5]: 67.6 nM
EC50 [2, 6]: 4.43 nM
EC50 (SARS-CoV-2; [7]): 123 nM

CCOC(=O)[C@H](C)NP(=O)(OC[C@H]1O[C@@](C#N)(c2ccc3c(N)ncnn23)[C@H](OC(C)=O)[C@@H]1OC(C)=O)Oc1ccc(C23CC(C2)C3)cc1 (single isomer, unassigned) [Example 42b]
EC50 ([1]; Table 3): 68.8 nM
EC50 [2, 4]: 8 nM
EC50 (SARS-CoV-2): 51.3 nM

CC(C)C(=O)O[C@H]1[C@@H](OC(=O)C(C)C)[C@](C#N)(c2ccc3c(N)ncnn23)O[C@@H]1COP(=O)(N[C@@H](C)C(=O)OC1CCC1)Oc1cccc2ccccc12 (single isomer, unassigned) [Example 55b]
EC50 [2, 4]: 6.12 nM
EC50 (SARS-CoV-2): 108 nM
EC50 ([3]; read-out: EC50 RSV HEP2 96, HEp-2 cells, RSV A2, MOI=4, 4 days, 96 well): 7.44 nM
